Experiment [1] concerns Arabidopsis thaliana MC24. Briefly: Greenhouse dose response, post-emergence spray of untransformed motherline. Format: in vivo. Conditions: 9 leaf stage, rates from 0.8 to 100 g/ha, 14 days after treatment (FIG. 2).
In experiment [2] the test system is Transgenic MC24 plants expressing the short Scenedesmus obliquus HPPD (SEQ ID NO:50). Briefly: Greenhouse post-emergence herbicide tolerance test, transgenic lines expressing short Scenedesmus obliquus HPPD (F363I, amino acids 442-477 deleted). In kind it is in vivo, Arabidopsis thaliana. An excerpt: (§1) Additionally, T1 and T2 transgenic Arabidopsis plants can be tested for improved tolerance to HPPD-inhibiting benzamide herbicides in a greenhouse studies. Herbicide injury scoring is done 2-3 weeks after treatment and is rated on a scale of 0 to 100%, 0% being no injury and 100% being complete death.
(§2) The seedlings are then transfered to pots with a diameter of 10 cm and grown in soil to the nine leaf stage.
(§3) Preselected transgenic Arabidopsis plants expressing heterologous Scenedesmus obliquus HPPD mutant enzymes as defined in Seq ID No. 48 and Seq ID No. 50 are tested for tolerance against HPPD-inhibiting 4-bromo-3-(dicyclopropylcarbamoylamino)-6-fluoro-2-methyl-N(1-methyltetrazol-5-yl) benzamide herbicide in greenhouse experiments.
(§4) Transgenic lines are tested expressing heterologous Scenedesmus obliquus HPPD coding sequences under control of the constitutive parsley ubiquitin promoter and the nos terminator. One construct contains the full length Scenedesmus obliquus HPPD enzyme (Seq ID No. 47) while in a second construct the naturally occurring C-terminal insertion of 36 amino acids at position 442-477 is deleted (Seq ID No. 49). Both coding sequences carry the mutation F363I.
(§5) Broadleaf plants are more sensitive to HPPD inhibitors when applied post-emergence as compared to a pre-emergence testing. Therefore, transgenic lines are tested in a post emergence setting at about the nine leaf stage.
(§6) For the herbicide treatment of transgenic lines 4-bromo-3-(dicyclopropylcarbamoylamino)-6-fluoro-2-methyl-N-(1-methyltetrazol-5-yl) benzamide is applied at use rates of 25, 50 and 100 g/ha (see FIG. 3)
(§7) Treated plants are assessed 14 days after treatment (DAT) in the post-emergence setting.

The subject of experiment [3] is Transgenic MC24 plants expressing the Scenedesmus obliquus HPPD full length coding sequence (SEQ ID NO: 47). Briefly: Greenhouse post-emergence herbicide tolerance test, transgenic lines expressing full length Scenedesmus obliquus HPPD (F363I). In kind it is in vivo, Arabidopsis thaliana.
Excerpt: as §1, §2, §3, §4, §5, §6, §7

Structures are written as SMILES.

As to `Cc1c(NC(=O)N(C2CC2)C2CC2)c(Br)cc(F)c1C(=O)Nc1nnnn1C` [4-bromo-3-(dicyclopropylcarbamoylamino)-6-fluoro-2-methyl-N-(1-methyltetrazol-5-yl) benzamide], in experiment [1], the “sensitivity of untransformed MC24 plants towards the herbicide (plant death)” value was “die even at the lowest rate”. Further, the “herbicide tolerance of transgenic lines” value in experiment [2] (short S. obliquus HPPD F363I, 25 to 100 g/ha, post-emergence, 9 leaf stage, 14 DAT (FIG. 3)) is “show herbicide tolerance”; in experiment [3] (full length S. obliquus HPPD F363I, 25-100 g/ha, post-emergence, 9 leaf stage, 14 DAT (FIG. 4)) it was “show herbicide tolerance”. Further, the “herbicidal injury of transgenic lines” value in experiment [2] (short S. obliquus HPPD F363I, 50 to 100 g/ha, post-emergence, 14 DAT (FIG. 3)) is “Little herbicidal injury”. Besides, the “injury of plants with S. obliquus HPPD gene carrying F363I (overall assessment)” value in experiment [2] (short construct, shown rates 25, 50 and 100 g/ha, 14 days after treatment) was “very little to no injury”; in experiment [3] (full length construct, shown rates 25, 50 and 100 g/ha, 14 days after treatment), “very little to no injury”. In addition, in experiment [3] (25-100 g/ha, 14 days after treatment), the “herbicide tolerance of full length sequence compared to HPPD not containing the C-terminal loop” value is listed as “slightly better herbicide tolerance”.

The record behind these values is US20210147866A1, “PLANTS HAVING INCREASED TOLERANCE TO HERBICIDES” (BASF SE, priority 2017, published 2021).
